{"source": "patent US7173030B2", "about": "“Inhibitors of 11-β-hydroxy steroid dehydrogenase type 1” (Biovitrum AB, priority 2003, dated 2007)", "key": {"[1]": {"test_system": "intraocular pressure", "settings": "normal subjects; Raus et al 2001; cited from earlier work"}, "[2]": {"test_system": "hepatic insulin sensitivity", "settings": "healthy human volunteers; Walker et al. 1995; cited from earlier work"}, "[3]": {"test_system": "Diabetic KKA^y mice", "assay": "Wound healing of surgical wounds in diabetic KKA^y mice", "format": "in vivo", "settings": "oral twice daily 200 mg/kg/day for 3.5 days", "procedure": "Diabetic KKA^y mice underwent surgery during anesthesia whereby a catheter was inserted in the jugularis vein. Oral treatment twice daily (200 mg/kg/day) with the 11β-HSD1 inhibitor BVT.2733 (disclosed as Example 172A in WO 01/90090), or vehicle started 4–6 days later and continued for 3.5 days.\nAdvantageous effects on wound healing of the surgical wounds were observed during treatment."}, "[4]": {"biological_target": "T1, human 11-β-hydroxysteroid dehydrogenase type-1 enzyme (11-β-HSD1) (Homo sapiens, UniProt P28845)", "T1 construct": "made in house; host or cells: Pichia pastoris", "T1 sequence (P28845 whole entry)": "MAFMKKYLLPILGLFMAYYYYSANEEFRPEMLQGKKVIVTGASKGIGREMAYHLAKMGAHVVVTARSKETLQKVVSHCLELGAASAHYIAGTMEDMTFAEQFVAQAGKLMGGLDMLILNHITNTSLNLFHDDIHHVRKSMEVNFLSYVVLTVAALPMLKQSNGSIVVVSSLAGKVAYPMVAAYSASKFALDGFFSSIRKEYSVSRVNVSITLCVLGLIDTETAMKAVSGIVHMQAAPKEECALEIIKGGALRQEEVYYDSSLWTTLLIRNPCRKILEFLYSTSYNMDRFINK", "assay": "Scintillation proximity assay: human 11-β-HSD1 enzyme assay", "format": "biochemical", "settings": "Ki calculated from IC50 (Cheng Prushoff)", "from_the_text": "[1,2(n)-^3H]-cortisone was purchased from Amersham Pharmacia Biotech. Anti-cortisol monoclonal mouse antibody, clone 6D6.7 was obtained from Immunotech and Scintillation proximity assay (SPA) beads coated with monoclonal antimouse antibodies were from Amersham Pharmacia Biotech. NADPH, tetrasodium salt was from Calbiochem and glucose-6-phosphate (G-6-P) was supplied by Sigma. The human 11-β-hydroxysteroid dehydrogenase type-1 enzyme (11-β-HSD1) was expressed in Pichia pastoris. 18-β-glycyrrhetinic acid (GA) was obtained from Sigma. The serial dilutions of the compounds were performed on a Tecan Genesis RSP 150. […]\nThe multiplication of plates was done on a WallacQuadra. The amount of the product [^3H]-cortisol, bound to the beads was determined in a Packard, Top Count microplate liquid scintillation counter. […]\nThe plates were covered with plastic film and incubated on a shaker for 30 minutes, at room temperature, before counting. The amount of [^3H]-cortisol, bound to the beads was determined in a microplate liquid scintillation counter.\nThe calculation of the Ki values for the inhibitors was performed by use of Activity Base. The Ki value is calculated from IC50 and the Km value is calculated using the Cheng Prushoff equation (with reversible inhibition that follows the Michaelis-Menten equation): […] [Cheng, Y. C.; Prushoff, W. H. Biochem. Pharmacol. 1973, 22, 3099–3108]. […]"}}, "data": [{"compound": "CC1(C)[C@@H](OC(=O)CCC(=O)O)CC[C@]2(C)[C@H]3C(=O)C=C4[C@@H]5C[C@@](C)(C(=O)O)CC[C@]5(C)CC[C@@]4(C)[C@]3(C)CC[C@@H]12", "note": "[carbenoxolone]", "values": [{"measurement": "reduction of intraocular pressure", "setting": "[1]", "result": 20, "unit": "%"}, {"measurement": "hepatic insulin sensitivity", "setting": "[2]", "result": "improved"}]}, {"compound": "BVT.2733", "values": [{"measurement": "animals showing complications during treatment period", "setting": "[3]; jugular catheter surgery, vehicle 58%", "result": 24, "unit": "%"}, {"measurement": "effects on wound healing of the surgical wounds", "setting": "[3]; compared to control mice", "result": "less pus in the wound, as well as better wound strength"}]}, {"compound": "Cc1ccc([N+](=O)[O-])cc1S(=O)(=O)Nc1nc(C(C)C)ns1", "note": "[Example 80, N-(3-isopropyl-1,2,4-thiadiazol-5-yl)-2-methyl-5-nitrobenzenesulfonamide]", "values": [{"measurement": "Ki", "setting": "[4]", "result": 321, "unit": "nM"}]}, {"compound": "CC(C)c1nnc(NS(=O)(=O)c2ccc(Oc3ccccc3)cc2)s1", "note": "[Example 244, N-(5-isopropyl-1,3,4-thiadiazol-2-yl)-4-phenoxybenzenesulfonamide]", "values": [{"measurement": "Ki", "setting": "[4]", "result": 219, "unit": "nM"}]}]}
